Among the data in PubChem BioAssay (NCI) are GI50 and TGI values, retold here.

Values joined by “and” are separate entries in the source; they are usually repeats but may differ in a detail not shown here. Identical values can stand only once.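 Tested at 5 concentrations; 48 h exposure; 96-well plates; endpoints linearly interpolated, else capped at highest concentration. GI50 marks 50% less growth. At the TGI there is no net growth.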 Bounds are passed on as bounds.

Among the test systems are U251 CNS; KM12 colon; MDA-MB-435; SK-OV-3 ovarian; HCC-2998 colon; BT-549 breast; HL-60(TB) leukemia; OVCAR-3 ovarian; TK-10 renal; UACC-62 melanoma.
Common to all, as to assay: inhibition of tumour cell growth, NCI panel, 48 h

As to `COc1ccc2[nH]c(O)c(/C=c3/ccc4c(c3)N=C(c3ccc(F)cc3)N=4)c2c1`, the GI50 was 3650 nM in the experiment with U251 CNS; 4540 nM in the experiment with KM12 colon; 3200 nM in the experiment with MDA-MB-435; 2620 nM in the experiment with SK-OV-3 ovarian; over 100000 nM with HCC-2998 colon; 1750 nM in the experiment with BT-549 breast. The GI50 in the experiment with HL-60(TB) leukemia was 28300 nM; in the experiment with OVCAR-3 ovarian it was 3250 nM; in the experiment on TK-10 renal, 3010 nM; in the experiment with UACC-62 melanoma, 6110 nM. For the same compound, the TGI in the experiment with U251 CNS is 30800 nM; with KM12 colon it was 77900 nM; in the experiment with MDA-MB-435, 40000 nM; in the experiment with SK-OV-3 ovarian, 6060 nM; in the experiment on HCC-2998 colon, over 100000 nM; in the experiment with BT-549 breast it was 4750 nM. The TGI was over 100000 nM with HL-60(TB) leukemia, 11400 nM in the experiment on OVCAR-3 ovarian, 7120 nM with TK-10 renal and over 100000 nM with UACC-62 melanoma.
As for `COc1cc(C2C3=C(COC3=O)Nc3cc4c(cc32)OCO4)cc2c1OCO2` (stereo not drawn), the GI50 in the experiment on U251 CNS was 111 nM; in the experiment on KM12 colon, 35.5 nM; with MDA-MB-435, 23.8 nM; in the experiment on SK-OV-3 ovarian, 70.6 nM; in the experiment on HCC-2998 colon, 109 nM; in the experiment with BT-549 breast it was 1660 nM. For the same compound, the GI50 in the experiment with HL-60(TB) leukemia was 59 nM; in the experiment with OVCAR-3 ovarian it was 26.7 nM; with TK-10 renal, 295 nM; in the experiment with UACC-62 melanoma, 51.9 nM. The TGI in the experiment on U251 CNS was over 100000 nM; with KM12 colon, 1920 nM; in the experiment with MDA-MB-435 it was 66.4 nM; in the experiment on BT-549 breast, over 100000 nM; with OVCAR-3 ovarian, 69.5 nM; with TK-10 renal, over 100000 nM. This compound also yielded a TGI with UACC-62 melanoma of over 100000 nM.
As for `O=C1N[C@H]2[C@H](O)[C@H](O)[C@@H](O)[C@H](O)[C@@H]2c2cc3c(c(O)c21)OCO3`, the GI50 in the experiment with U251 CNS is 156 nM and 187 nM; in the experiment on KM12 colon, 234 nM; in the experiment with MDA-MB-435 it was 24.9 nM; with SK-OV-3 ovarian, 300 nM and 330 nM; in the experiment on HCC-2998 colon, 61.8 nM; in the experiment with BT-549 breast, 18.7 nM. Further, the GI50 was 194 nM and 78.3 nM in the experiment with HL-60(TB) leukemia; 275 nM and 347 nM in the experiment on OVCAR-3 ovarian; 56.1 nM in the experiment with TK-10 renal; 246 nM and 412 nM in the experiment on UACC-62 melanoma. The TGI was 2800 nM and 410 nM in the experiment on KM12 colon; 1300 nM and 140 nM with MDA-MB-435; 279 nM and 148 nM in the experiment on HCC-2998 colon; 68.4 nM and 142 nM in the experiment with BT-549 breast; 331 nM and 74.4 nM with HL-60(TB) leukemia; 3550 nM and 1690 nM in the experiment with TK-10 renal.
`CC(OC(=O)N(N(CCCl)S(C)(=O)=O)S(C)(=O)=O)c1ccc([N+](=O)[O-])cc1` (stereo not drawn): the GI50 is 42500 nM in the experiment on U251 CNS; over 82000 nM in the experiment on KM12 colon; 99400 nM in the experiment with MDA-MB-435; over 100000 nM in the experiment with SK-OV-3 ovarian; 56000 nM in the experiment with HCC-2998 colon; 33800 nM in the experiment on BT-549 breast. Further, the GI50 in the experiment on HL-60(TB) leukemia is 40100 nM; with OVCAR-3 ovarian, 42500 nM; in the experiment with TK-10 renal, over 66200 nM; in the experiment on UACC-62 melanoma, 29600 nM. Also, the TGI in the experiment on U251 CNS, with KM12 colon, in the experiment on MDA-MB-435, in the experiment on SK-OV-3 ovarian, in the experiment on HCC-2998 colon and in the experiment with BT-549 breast was over 100000 nM each time. The TGI with HL-60(TB) leukemia, in the experiment on OVCAR-3 ovarian, in the experiment on TK-10 renal and in the experiment on UACC-62 melanoma was over 100000 nM in each case.
With `CN(C)c1ccc(C(=C2C=CC(=[N+](C)C)C=C2)c2ccccc2Cl)cc1`, the GI50 is 127 nM with U251 CNS; 283 nM in the experiment on KM12 colon; 309 nM with MDA-MB-435; 314 nM in the experiment with SK-OV-3 ovarian; 354 nM in the experiment with HCC-2998 colon; 373 nM in the experiment with BT-549 breast. Further, the GI50 in the experiment on HL-60(TB) leukemia is 277 nM; in the experiment on OVCAR-3 ovarian, 261 nM; with TK-10 renal it was 345 nM; in the experiment with UACC-62 melanoma, 323 nM. Besides, the TGI in the experiment with U251 CNS amounted to 1140 nM; in the experiment with KM12 colon, 929 nM; with MDA-MB-435 it was 1110 nM; in the experiment with SK-OV-3 ovarian, 992 nM; in the experiment with HCC-2998 colon, 1280 nM; in the experiment with BT-549 breast it was 2560 nM. Moreover, the TGI is 3840 nM in the experiment on HL-60(TB) leukemia, 699 nM in the experiment with OVCAR-3 ovarian, 1410 nM in the experiment with TK-10 renal and 1430 nM in the experiment on UACC-62 melanoma.
